Test [1] deals with Rattus norvegicus. Nature of the test: Retention time in Scopolamine induced avoidance test (performed in rat) for antagonistic activity after peroral administration of 1.25 mg/kg. The arrangement: dose 1.25 mg/kg. It counts as functional, organism-based.
The test system of test [2] is Rattus norvegicus. The test can be described thus: Retention time in Scopolamine induced avoidance test (performed in rat) for antagonistic activity after peroral administration of 20 mg/kg. On the set-up: dose 20 mg/kg. It counts as functional, organism-based.
Test [3] relates to Mus musculus. Nature of the test: Retention time in (R)-PIA) induced avoidance test (performed in mice) for antagonistic activity after peroral administration of 0.31 mg/kg. Format: functional, organism-based. The arrangement: dose 0.31 mg/kg.
Test [4] has as its system Rattus norvegicus. Nature of the test: Retention time in Scopolamine induced avoidance test (performed in rat) for antagonistic activity after p.o. administration of 0.31 mg/kg. It counts as functional, organism-based. The arrangement: dose 0.31 mg/kg.
Test [5] relates to Mus musculus. The test can be described thus: Retention time in (R)-PIA) induced avoidance test (performed in mice) for antagonistic activity after peroral administration of 0.08 mg/kg. On the set-up: dose 0.08 mg/kg. It counts as functional, organism-based.
Test [6] deals with Rattus norvegicus. Nature of the test: Retention time in Scopolamine induced avoidance test (performed in rat) for antagonistic activity after peroral administration of 0.08 mg/kg. Format: functional, organism-based. On the set-up: dose 0.08 mg/kg.
Test [7] concerns Mus musculus. The test can be described thus: Retention time in (R)-PIA) induced avoidance test (performed in mice) for antagonistic activity after peroral administration of 5 mg/kg. Format: functional, organism-based. On the set-up: dose 5 mg/kg.
In test [8] the test system is Mus musculus. The test can be described thus: Retention time in (R)-PIA) induced avoidance test (performed in mice) for antagonistic activity after peroral administration of 1.25 mg/kg. It counts as functional, organism-based. The arrangement: dose 1.25 mg/kg.
Test [9] deals with Mus musculus. The test can be described thus: Tested for locomotor activity after oral administration of 10 mg/kg for 120 min. Format: functional.
Test [10] has as its system Mus musculus. Nature of the test: Tested for locomotor activity after oral administration of 5 mg/kg for 120 min. Format: functional.
In test [11] the test system is Rattus norvegicus. The test can be described thus: Retention time in Scopolamine induced avoidance test (performed in rat) for antagonistic activity after p.o. administration of 0.08 mg/kg. It counts as functional, organism-based. On the set-up: dose 0.08 mg/kg.
Test [12] concerns Mus musculus. Nature of the test: Acquisition time in (R)-PIA) induced avoidance test (performed in mice) for antagonistic activity after p.o. administration of 0.31 mg/kg. The conditions noted are these: route oral. It counts as functional.
Test [13] deals with Mus musculus. Nature of the test: Acquisition time in (R)-PIA) induced avoidance test (performed in mice) for antagonistic activity after peroral administration of 0.08 mg/kg. Format: functional. The conditions noted are these: route oral.
For test [14], the system named is Rattus norvegicus. Nature of the test: Acquisition time in Scopolamine induced avoidance test (performed in rat) for antagonistic activity after peroral administration of 0.02 mg/kg. It counts as functional. The conditions noted are these: route oral.
In test [15] the test system is Rattus norvegicus. The test can be described thus: Acquisition time in Scopolamine induced avoidance test (performed in rat) for antagonistic activity after p.o. administration of 0.31 mg/kg. It counts as functional. The conditions noted are these: route oral.
The subject of test [16] is Mus musculus. The test can be described thus: Acquisition time in (R)-PIA) induced avoidance test (performed in mice) for antagonistic activity after peroral administration of 1.25 mg/kg. The conditions noted are these: route oral. It counts as functional.
Test [17] deals with Rattus norvegicus. Nature of the test: Retention time in Scopolamine induced avoidance test (performed in rat) for antagonistic activity after peroral administration of 5 mg/kg (n=15). It counts as functional, organism-based. On the set-up: dose 5 mg/kg.
Test [18] has as its system Rattus norvegicus. Nature of the test: Acquisition time in Scopolamine induced avoidance test (performed in rat) for antagonistic activity after peroral administration of 0.08 mg/kg. Format: functional. The conditions noted are these: route oral.
For test [19], the system named is Mus musculus. Nature of the test: Retention time in (R)-PIA) induced avoidance test (performed in mice) for antagonistic activity after peroral administration of 0.02 mg/kg. It counts as functional, organism-based. On the set-up: dose 0.02 mg/kg.
Test [20] concerns Rattus norvegicus. The test can be described thus: Acquisition time in Scopolamine induced avoidance test (performed in rat) for antagonistic activity after peroral administration of 1.25 mg/kg. Format: functional. The conditions noted are these: route oral.
For test [21], the system named is Rattus norvegicus. Nature of the test: Retention time in Scopolamine induced avoidance test (performed in rat) for antagonistic activity after peroral administration of 0.02 mg/kg. Format: functional, organism-based. On the set-up: dose 0.02 mg/kg.
Test [22] has as its system Mus musculus. The test can be described thus: Acquisition time in (R)-PIA) induced avoidance test (performed in mice) for antagonistic activity after peroral administration of 0.02 mg/kg. It counts as functional. The following applies: route oral.
The test system of test [23] is Rattus norvegicus. The test can be described thus: Acquisition time in Scopolamine induced avoidance test (performed in rat) for antagonistic activity after peroral administration of 5 mg/kg. Format: functional. The conditions noted are these: route oral.
Test [24] relates to Mus musculus. Nature of the test: Acquisition time in (R)-PIA) induced avoidance test (performed in mice) for antagonistic activity after peroral administration of 5 mg/kg. Format: functional. The following applies: route oral.
For test [25], the system named is Mus musculus. Nature of the test: Tested for locomotor activity after oral administration of […] for 120 min. Format: functional.
For test [26], the system named is Rattus norvegicus. Nature of the test: Acquisition time in Scopolamine induced avoidance test (performed in rat) for antagonistic activity after p.o. administration of 5 mg/kg. Format: functional. The conditions noted are these: route oral.
Test [27] deals with Rattus norvegicus. The test can be described thus: Retention time in Scopolamine induced avoidance test (performed in […]) for antagonistic activity after peroral administration of 5 mg/kg. The arrangement: dose 5 mg/kg. Format: functional, organism-based.
Test [28] relates to Mus musculus. The test can be described thus: Retention time in (R)-PIA) induced avoidance test (performed in mice) for antagonistic activity after peroral administration of 20 mg/kg. It counts as functional, organism-based. On the set-up: dose 20 mg/kg.
Test [29] has as its system Mus musculus. The test can be described thus: Retention time in (R)-PIA) induced avoidance test (performed in mice) for antagonistic activity after p.o. administration of 1.25 mg/kg. Format: functional, organism-based. The arrangement: dose 1.25 mg/kg.
Test [30] deals with Mus musculus. Nature of the test: Acquisition time in (R)-PIA) induced avoidance test (performed in mice) for antagonistic activity after p.o. administration of 1.25 mg/kg. It counts as functional. The conditions noted are these: route oral.
The test system of test [31] is Rattus norvegicus. Nature of the test: Retention time in Scopolamine induced avoidance test (performed in rat) for antagonistic activity after peroral administration of 20 mg/kg (n=9). Format: functional, organism-based. On the set-up: dose 20 mg/kg.
The subject of test [32] is Rattus norvegicus. Nature of the test: Acquisition time in Scopolamine induced avoidance test (performed in rat) for antagonistic activity after p.o. administration of 0.08 mg/kg. It counts as functional. The conditions noted are these: route oral.
Test [33] relates to Rattus norvegicus. The test can be described thus: Acquisition time in Scopolamine induced avoidance test (performed in rat) for antagonistic activity after peroral administration of 20 mg/kg. Format: functional. The conditions noted are these: route oral.
Test [34] has as its system Mus musculus. The test can be described thus: Acquisition time in (R)-PIA) induced avoidance test (performed in mice) for antagonistic activity after peroral administration of 20 mg/kg. It counts as functional. The conditions noted are these: route oral.

Retention time, Locomotor activity and Acquisition time data for 3 molecules are collected here from ChEMBL document CHEMBL1126778, “Adenosine A1 antagonists. 3. Structure-activity relationships on amelioration against scopolamine- or N6-((R)-phenylisopropyl)adenosine-induced cognitive disturbance” (J Med Chem, 1993).

On to `Cn1c(=O)c2[nH]cnc2n(C)c1=O`, for which the Retention time with Rattus norvegicus [1] was determined as 10.9 s; in the test with Rattus norvegicus [2], 14.6 s; in the test on Mus musculus [3], 113 s; in the test on Rattus norvegicus [4] it was 31.2 s; in the test with Mus musculus [5], 85.4 s; with Rattus norvegicus [6], 45.8 s. The Retention time in the test with Mus musculus [7] came out at 104 s; in the test on Mus musculus [8], 166 s.
With `CCCn1c(=O)c2nc(C(C3CC3)C3CC3)[nH]c2n(CCC)c1=O`, the Locomotor activity came to 5371 Counts in the test on Mus musculus [9], 5631 Counts in the test on Mus musculus [10] and 4365 Counts in the test on Mus musculus [25]. The Retention time was 54.1 s with Rattus norvegicus [11]; 120 s in the test on Rattus norvegicus [17]; 140 s in the test on Mus musculus [3]; 51.3 s in the test on Mus musculus [19]; 218 s in the test with Rattus norvegicus [4]; 48.8 s in the test with Rattus norvegicus [21]. Further, the figures for the Retention time in the test with Mus musculus [5], with Mus musculus [7] and in the test on Mus musculus [8] were 83.9 s, 248 s and 262 s, respectively. The Acquisition time in the test with Mus musculus [12] turned out to be 21.7 s; in the test on Mus musculus [13], 46.5 s; in the test on Rattus norvegicus [14], 29.9 s; with Rattus norvegicus [15] it was 15.6 s; in the test on Mus musculus [16] it was 22.7 s; in the test on Rattus norvegicus [18] it was 19.3 s. Moreover, the Acquisition time is 20.4 s in the test with Rattus norvegicus [20], 32.9 s in the test on Mus musculus [22], 14.7 s in the test on Rattus norvegicus [23] and 28.1 s with Mus musculus [24].
Consider `CCCn1c(=O)c2c(nc(/C=C/c3ccc(OC)c(OC)c3)n2C)n(CCC)c1=O`, for which the Retention time with Rattus norvegicus [11] worked out at 31.1 s; with Rattus norvegicus [1] it was 20.3 s; with Rattus norvegicus [27], 4.9 s; with Mus musculus [3] it was 42.4 s; in the test with Mus musculus [28], 92.4 s; in the test on Mus musculus [29] it was 65.3 s. Moreover, the Retention time was determined as 15.6 s with Rattus norvegicus [31], 12.9 s with Rattus norvegicus [4] and 37.5 s with Mus musculus [7]. The Acquisition time with Rattus norvegicus [26] was found to be 24.4 s; with Mus musculus [12], 22.7 s; in the test on Rattus norvegicus [15] it was 11.8 s; in the test with Mus musculus [30], 25.3 s; with Rattus norvegicus [20], 10.1 s; with Rattus norvegicus [32] it was 14.9 s. The Acquisition time with Mus musculus [24] worked out at 19.8 s; with Rattus norvegicus [33], 22.2 s; with Mus musculus [34] it was 31.2 s.
